Test results reported in the NIST ThermoML archive (doi:10.1021/acs.jced.9b00209).
± gives the expanded uncertainty stated by the source.

Tests used:
[1] = 101.33 kPa, Liquid, Pycnometric method
[2] = Boiling temperature at pressure P; settings: Liquid, Ebulliometric method (Recirculating still)
[3] = molar heat capacity at saturation pressure; settings: Liquid, Vacuum adiabatic calorimetry

CC(C)CCOC(=O)C(C)O (configuration not stated) [isopentyl 2-hydroxypropanoate]
mass density ([1]; 288.15 K): 976 ± 9 kg/m3
mass density ([1]; 293.65 K): 973.5 ± 9 kg/m3
mass density ([1]; 298.15 K): 969.5 ± 9 kg/m3
mass density ([1]; 303.15 K): 965 ± 9 kg/m3
mass density ([1]; 308.15 K): 960.6 ± 9 kg/m3
mass density ([1]; 315.65 K): 954.9 ± 9 kg/m3
mass density ([1]; 320.15 K): 950 ± 9 kg/m3
mass density ([1]; 326.15 K): 945.3 ± 9 kg/m3
mass density ([1]; 331.65 K): 939.8 ± 9 kg/m3
mass density ([1]; 336.15 K): 937.8 ± 9 kg/m3
mass density ([1]; 341.45 K): 931.1 ± 9 kg/m3
mass density ([1]; 346.15 K): 928 ± 9 kg/m3
mass density ([1]; 350.95 K): 922.7 ± 9 kg/m3
mass density ([1]; 355.65 K): 917 ± 9 kg/m3
mass density ([1]; 361.65 K): 913.2 ± 9 kg/m3
mass density ([1]; 367.15 K): 908 ± 9 kg/m3
mass density ([1]; 373.15 K): 903 ± 9 kg/m3
mass density ([1]; 378.45 K): 898.3 ± 9 kg/m3
mass density ([1]; 383.45 K): 893 ± 9 kg/m3
mass density ([1]; 390.65 K): 887.5 ± 9 kg/m3
mass density ([1]; 397.15 K): 883.1 ± 9 kg/m3
mass density ([1]; 404.35 K): 876.4 ± 9 kg/m3
mass density ([1]; 410.85 K): 869.6 ± 9 kg/m3
mass density ([1]; 417.05 K): 864.7 ± 9 kg/m3
mass density ([1]; 420.45 K): 861 ± 9 kg/m3
mass density ([1]; 424.75 K): 854.7 ± 9 kg/m3
mass density ([1]; 428.15 K): 854.2 ± 9 kg/m3
mass density ([1]; 434.25 K): 848.9 ± 9 kg/m3
mass density ([1]; 441.75 K): 842.2 ± 9 kg/m3
mass density ([1]; 448.55 K): 836 ± 9 kg/m3
mass density ([1]; 453.15 K): 832 ± 9 kg/m3
Boiling temperature at pressure P ([2]; 4.5 kPa): 101.44 ± 1.6 °C
Boiling temperature at pressure P ([2]; 8.6 kPa): 118.64 ± 1.4 °C
Boiling temperature at pressure P ([2]; 13.8 kPa): 131.41 ± 1.2 °C
Boiling temperature at pressure P ([2]; 18.4 kPa): 139.2 ± 1.1 °C
Boiling temperature at pressure P ([2]; 22.8 kPa): 146.61 ± 1.1 °C
Boiling temperature at pressure P ([2]; 27.9 kPa): 153.00 ± 1.1 °C
Boiling temperature at pressure P ([2]; 33.2 kPa): 158.40 ± 1 °C
Boiling temperature at pressure P ([2]; 38.6 kPa): 163.80 ± 1 °C
Boiling temperature at pressure P ([2]; 42.9 kPa): 168.23 ± 1 °C
Boiling temperature at pressure P ([2]; 48.2 kPa): 171.66 ± 1 °C
Boiling temperature at pressure P ([2]; 52.3 kPa): 174.60 ± 1 °C
Boiling temperature at pressure P ([2]; 57.6 kPa): 178.1 ± 1 °C
Boiling temperature at pressure P ([2]; 62.3 kPa): 182.00 ± 1 °C
Boiling temperature at pressure P ([2]; 69.2 kPa): 186.00 ± 1 °C
Boiling temperature at pressure P ([2]; 72.7 kPa): 188.32 ± 1 °C
Boiling temperature at pressure P ([2]; 77 kPa): 190.7 ± 1 °C
Boiling temperature at pressure P ([2]; 82 kPa): 192.98 ± 1 °C
Boiling temperature at pressure P ([2]; 87.2 kPa): 195.31 ± 1 °C
Boiling temperature at pressure P ([2]; 91.4 kPa): 197.64 ± 1 °C
Boiling temperature at pressure P ([2]; 95.7 kPa): 199.20 ± 1 °C
Boiling temperature at pressure P ([2]; 100.7 kPa): 201.00 ± 1 °C
Boiling temperature at pressure P ([2]; 110.3 kPa): 205.41 ± 1 °C
molar heat capacity ([3]; 288.15 K): 360.71 ± 3.6 J/K/mol
molar heat capacity ([3]; 293.65 K): 362.52 ± 3.6 J/K/mol
molar heat capacity ([3]; 298.15 K): 364.02 ± 3.7 J/K/mol
molar heat capacity ([3]; 303.55 K): 365.85 ± 3.7 J/K/mol
molar heat capacity ([3]; 308.95 K): 367.71 ± 3.7 J/K/mol
molar heat capacity ([3]; 313.65 K): 369.34 ± 3.7 J/K/mol
molar heat capacity ([3]; 318.45 K): 371.04 ± 3.7 J/K/mol
molar heat capacity ([3]; 323.65 K): 372.9 ± 3.8 J/K/mol
molar heat capacity ([3]; 328.25 K): 374.56 ± 3.8 J/K/mol
molar heat capacity ([3]; 333.85 K): 376.6 ± 3.8 J/K/mol
molar heat capacity ([3]; 338.75 K): 378.4 ± 3.8 J/K/mol
molar heat capacity ([3]; 343.05 K): 380 ± 3.8 J/K/mol
molar heat capacity ([3]; 348.55 K): 382.06 ± 3.8 J/K/mol
molar heat capacity ([3]; 353.15 K): 383.8 ± 3.9 J/K/mol
molar heat capacity ([3]; 358.45 K): 385.81 ± 3.9 J/K/mol
molar heat capacity ([3]; 363.35 K): 387.69 ± 3.9 J/K/mol
molar heat capacity ([3]; 368.05 K): 389.51 ± 3.9 J/K/mol
molar heat capacity ([3]; 373.75 K): 391.72 ± 3.9 J/K/mol
molar heat capacity ([3]; 378.85 K): 393.72 ± 4 J/K/mol
molar heat capacity ([3]; 383.35 K): 395.5 ± 4 J/K/mol
molar heat capacity ([3]; 388.65 K): 397.6 ± 4 J/K/mol
molar heat capacity ([3]; 393.25 K): 399.44 ± 4 J/K/mol
molar heat capacity ([3]; 398.45 K): 401.54 ± 4 J/K/mol
molar heat capacity ([3]; 403.15 K): 403.44 ± 4.1 J/K/mol
molar heat capacity ([3]; 408.65 K): 405.69 ± 4.1 J/K/mol
molar heat capacity ([3]; 413.15 K): 407.54 ± 4.1 J/K/mol
molar heat capacity ([3]; 418.85 K): 409.91 ± 4.1 J/K/mol
molar heat capacity ([3]; 423.95 K): 412.04 ± 4.1 J/K/mol
molar heat capacity ([3]; 428.45 K): 413.94 ± 4.2 J/K/mol
molar heat capacity ([3]; 433.15 K): 415.95 ± 4.2 J/K/mol
molar heat capacity ([3]; 438.55 K): 418.27 ± 4.2 J/K/mol
molar heat capacity ([3]; 443.65 K): 420.49 ± 4.2 J/K/mol
molar heat capacity ([3]; 448.15 K): 422.47 ± 4.2 J/K/mol
molar heat capacity ([3]; 453.65 K): 424.92 ± 4.3 J/K/mol
